Measurements from article PMC4517612 (MedChemComm, 2015).
Several values for one entry are separate records, joined by “and”; a condition that tells them apart may be missing. Identical values can stand only once. Like-named read-outs stand apart in the source and are kept apart here.

What was measured:
[1] = test system: CCI model of neuropathic pain (mechanoallodynia) in mice; conditions: 3 μmol/kg p.o., ref Tosh et al.[8], cited from earlier work
[2] = test system: CCI model of neuropathic pain (mechanoallodynia) in mice; test: Mouse CCI model of neuropathic pain; assay type: in vivo; conditions: 3 μmol/kg p.o.; for reversal of mechanoallodynia at 1 h (in words): 1 h after drug treatment; for reversal of mechanoallodynia at 1 h (in words) / duration of action in vivo (in words): CCI mice
hA3AR = target: T1, hA3AR (Homo sapiens, UniProt P0DMS8); test: Radioligand binding at hA3AR
T1 sequence (P0DMS8 1-318): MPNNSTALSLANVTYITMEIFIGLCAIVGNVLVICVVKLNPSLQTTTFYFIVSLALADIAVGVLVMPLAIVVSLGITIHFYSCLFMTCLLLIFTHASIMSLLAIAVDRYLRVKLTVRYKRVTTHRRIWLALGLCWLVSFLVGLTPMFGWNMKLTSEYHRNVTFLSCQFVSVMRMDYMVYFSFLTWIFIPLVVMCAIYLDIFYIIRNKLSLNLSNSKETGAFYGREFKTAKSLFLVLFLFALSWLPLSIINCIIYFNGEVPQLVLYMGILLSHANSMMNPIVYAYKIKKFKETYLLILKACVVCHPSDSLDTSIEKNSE

| Structure (SMILES) | reversal of mechanoallodynia at 1 h (in words) [2] | duration of action in vivo (in words) [2] | further results |
| --- | --- | --- | --- |
| CNC(=O)[C@@]12C[C@@H]1[C@@H](n1cnc3c(NCc4cccc(Cl)c4)nc(C#Cc4ccc(F)c(F)c4)nc31)[C@H](O)[C@@H]2O [Compound 1] |  |  | Effect at 3h (% ± SEM), pain protection [1]: 24% and 23.7 ± 10.8%; Max. effect Emax (% ± SEM), reversal of reduction in PWT of ipsilateral hind paw [1]: 100 ± 0.0% |
| CNC(=O)[C@@]12C[C@@H]1[C@@H](n1cnc3c(NC)nc(C#Cc4ccc(Cl)s4)nc31)[C@H](O)[C@@H]2O [Compound 2] |  |  | Effect at 3h (% ± SEM), pain protection [1]: 83% and 82.8 ± 11.2%; Max. effect Emax (% ± SEM), reversal of reduction in PWT of ipsilateral hind paw [1]: 93.3 ± 6.7% |
| CNC(=O)[C@@]12C[C@@H]1[C@@H](n1cnc3c(NC)nc(-n4cc(-c5ncccn5)nn4)nc31)[C@H](O)[C@@H]2O [Compound 9] | nearly completely reversed |  | ligand efficiency with respect to A3AR affinity (hA3AR): 0.27 |
| CNC(=O)[C@@]12C[C@@H]1[C@@H](n1cnc3c(NC)nc(-n4cc(-c5cnn(C)c5)nn4)nc31)[C@H](O)[C@@H]2O [Compound 11] | nearly completely reversed |  |  |
| CCNc1nc(-n2cc(-c3ccc(Cl)s3)nn2)nc2c1ncn2[C@H]1[C@H](O)[C@H](O)[C@]2(C(=O)NC)C[C@H]12 [Compound 15] | nearly completely reversed |  |  |
| CNC(=O)[C@@]12C[C@@H]1[C@@H](n1cnc3c(NC4CCC4)nc(-n4cc(-c5ccc(Cl)s5)nn4)nc31)[C@H](O)[C@@H]2O [Compound 16] |  | prolonged in activity |  |
| CNC(=O)[C@@]12C[C@@H]1[C@@H](n1cnc3c(NCc4cccc(Cl)c4)nc(-n4cc(-c5ccc(Cl)s5)nn4)nc31)[C@H](O)[C@@H]2O [Compound 17] |  | nearly full protection up to 4 h | Effect at 3h (% ± SEM), pain protection ([2]; day 7 after CCI, mice, 3 h after administration): > 90% |
| CNC(=O)[C@@]12C[C@@H]1[C@@H](n1cnc3c(NCCc4ccccc4)nc(-n4cc(-c5ccc(Cl)s5)nn4)nc31)[C@H](O)[C@@H]2O [Compound 18] |  | prolonged in activity |  |
| CNC(=O)[C@@]12C[C@@H]1[C@@H](n1cnc3c(NC)nc(-n4cc(-c5ccc(Br)s5)nn4)nc31)[C@H](O)[C@@H]2O [Compound 19] | nearly completely reversed |  |  |
